Tests used:
[1] = instrument: TW, calibrated with phosphatidylcholines (ESI+) and phosphatidylethanolamines (ESI-)
[2] = instrument: TW, calibrated with phosphatidylcholines (ESI+) and phosphatidylethanolamines (ESI-); remark: listed apart in the source
[3] = instrument: DT, single field, calibrated with Agilent tune mix (Agilent)
[4] = [M+H]+; instrument: DT; stepped-field
[5] = [M+Na]+; instrument: DT; stepped-field
[6] = instrument: TW, calibrated with phosphatidylcholines (ESI+) and phosphatidylethanolamines (ESI-), doubly charged cardiolipins calibrated with poly-DL-…
[7] = [M+H]+; instrument: DT; single field, calibrated with Agilent tune mix (Agilent)

CCCCCC/C=C\CCCCCCCCCC(=O)OC(COC(=O)CCCCCCCCCCCCCCC)COP(=O)([O-])OCC(O)COC(=O)C(C)[NH3+] (configuration not stated) [AlaPG(34:1)]
collision cross section (N2) ([1]; [M+H]+): 291.7 Å² | collision cross section (N2) ([1]; [M+K]+): 293.6 Å² | collision cross section (N2) ([1]; [M+Na]+): 294.3 Å²

CCCCCCCCCCCCCCCCCC(=O)N[C@@H](CO)[C@H](O)CCCCCCCCCCCCCCC [Cer(d18:0/18:0)]
collision cross section (N2) ([2]; [M+H]+): 263.1 Å²

CCCCCCCCCCCCCCCCCCCC(=O)N[C@@H](CO)[C@H](O)CCCCCCCCCCCCCCC [Cer(d18:0/20:0)]
collision cross section (N2) ([2]; [M+H]+): 269.1 Å²

CCCCCCCCCCCCC=CC[C@@H](O)[C@H](CO)NC(=O)CC=CCCCCCCCCCCCCCCCCCC [Cer(d18:1/22:1)]
collision cross section (N2) ([2]; [M+H]+): 270.2 Å² | collision cross section (N2) ([2]; [M-H]-): 260.2 Å²

CCCCCCCCCCCCC=CC[C@@H](O)[C@H](CO)NC(=O)CC=CCCCCCCCCCCCCCCCCCCCCCC [Cer(d18:1/26:1)]
collision cross section (N2) ([2]; [M+H]+): 282.4 Å²

CCCCCCCCCCCCC=CC[C@@H](O)[C@H](CO[C@@H]1O[C@H](CO)[C@@H](O)C(O)C1O)NC(=O)CC=CCCCCCCCCCCCCCC (some centres not stated) [GlcCer(d18:1/18:1)]
collision cross section (N2) ([2]; [M+H]+): 281.8 Å²

CCCCCCCCCCCCC=CC[C@@H](O)[C@H](CO[C@@H]1O[C@H](CO)[C@@H](O)C(O)C1O)NC(=O)CC=CCCCCCCCCCCCCCCCCCCCC (some centres not stated) [GlcCer(d18:1/24:1)]
collision cross section (N2) ([2]; [M+H]+): 298.2 Å² | collision cross section (N2) ([2]; [M+Na]+): 297.3 Å²

CCCCCCCCCCCCCCCC(=O)OCC(O)COP(=O)([O-])OCC[N+](C)(C)C (configuration not stated) [LPC(16:0)]
collision cross section (N2) ([3]; [M+HCOO]-): 235 Å² | collision cross section (N2) ([3]; [M+H]+): 229.8 Å² | collision cross section (N2) ([2]; [M+H]+): 228.5 Å² | collision cross section (N2) [4]: 233.3 Å²

CCCCC/C=C\C/C=C\C/C=C\CCCCCCC(=O)OC[C@@H](O)COP(=O)([O-])OCC[N+](C)(C)C [LPC(20:3)]
collision cross section (N2) ([2]; [M+H]+): 239 Å²

CC/C=C\C/C=C\C/C=C\C/C=C\CCCCCCC(=O)OC[C@@H](O)COP(=O)([O-])OCC[N+](C)(C)C [LPC(20:4)]
collision cross section (N2) ([2]; [M+H]+): 232.4 Å²

CCCCC/C=C\C/C=C\CCCCCCCC(=O)O[C@H](COC(=O)CCCCCCCCCCCCCCCCC)COP(=O)(O)O [PA(36:2)]
collision cross section (N2) ([3]; [M+NH4]+): 274.5 Å² | collision cross section (N2) ([3]; [M+Na]+): 274 Å² | collision cross section (N2) ([3]; [M-H]-): 260.2 Å² | collision cross section (N2) ([2]; [M-H]-): 259.5 Å²

CCCCC/C=C\C/C=C\C/C=C\CCCCC(=O)OC[C@H](COP(=O)([O-])OCC[N+](C)(C)C)OC(=O)CCCCCCC/C=C\CCCCCCCC [PC(36:4)]
collision cross section (N2) ([3]; [M+HCOO]-): 288.4 Å² | collision cross section (N2) ([2]; [M+CH3COO]-): 290.8 Å² | collision cross section (N2) ([2]; [M+H]+): 286 Å²

CCCCC/C=C\C/C=C\CCCCCCCCCCCC(=O)O[C@H](COC(=O)CCCCCCC/C=C\C/C=C\CCCCC)COP(=O)([O-])OCC[N+](C)(C)C [PC(40:4)]
collision cross section (N2) ([3]; [M+H]+): 300.2 Å² | collision cross section (N2) ([2]; [M+H]+): 296.1 Å²

CC/C=C\C/C=C\C/C=C\C/C=C\CCCCC(=O)OC[C@H](COP(=O)([O-])OCC[N+](C)(C)C)OC(=O)CCCCC/C=C\C/C=C\C/C=C\C/C=C\CCCCC [PC(40:8)]
collision cross section (N2) ([2]; [M+H]+): 291.6 Å²

CCCCC/C=C\C/C=C\C/C=C\CCCCCCC(=O)O[C@H](COC(=O)CCCCCCC/C=C\C/C=C\CCCCC)COP(=O)(O)OCCN [PE(38:5)]
collision cross section (N2) ([3]; [M+H]+): 280.1 Å² | collision cross section (N2) ([3]; [M-H]-): 271.2 Å² | collision cross section (N2) [5]: 287.2 Å² | collision cross section (N2) ([2]; [M+H]+): 276 Å² | collision cross section (N2) ([2]; [M-H]-): 269.5 Å²

CC/C=C\C/C=C\C/C=C\C/C=C\C/C=C\CCCC(=O)OC[C@H](COP(=O)(O)OCCN)OC(=O)CCCCC/C=C\C/C=C\C/C=C\C/C=C\CCCCC [PE(42:9)]
collision cross section (N2) [5]: 295.6 Å² | collision cross section (N2) ([2]; [M+H]+): 288.2 Å²

CC/C=C\C/C=C\C/C=C\C/C=C\C/C=C\CCCCCC(=O)O[C@H](COC(=O)CCC/C=C\C/C=C\C/C=C\C/C=C\C/C=C\CC)COP(=O)(O)OCCN [PE(42:10)]
collision cross section (N2) [5]: 291 Å² | collision cross section (N2) ([2]; [M+H]+): 285 Å²

CCCC/C=C\CCCCCCCC(=O)O[C@H](CO/C=C\CCCCCCCCCCCCCCCCCC)COP(=O)(O)OCCN [PE(p34:1)]
collision cross section (N2) ([3]; [M+H]+): 273.2 Å² | collision cross section (N2) ([3]; [M+Na]+): 276.9 Å² | collision cross section (N2) ([3]; [M-H]-): 262.2 Å² | collision cross section (N2) ([2]; [M-H]-): 262.1 Å²

CCCCCC/C=C\CCCCCCCC(=O)O[C@H](CO/C=C\CCCCCCCCCCCCCCCCCC)COP(=O)(O)OCCN [PE(p36:1)]
collision cross section (N2) ([2]; [M+H]+): 279.7 Å² | collision cross section (N2) ([2]; [M-H]-): 267.3 Å²

CCCCC/C=C\C/C=C\CCCCCCCCCC(=O)O[C@H](CO/C=C\CCCCCCCCCCCCCC)COP(=O)(O)OCCN [PE(p36:2)]
collision cross section (N2) ([3]; [M+H]+): 277.1 Å² | collision cross section (N2) ([3]; [M-H]-): 267.6 Å² | collision cross section (N2) ([2]; [M+H]+): 278.1 Å² | collision cross section (N2) ([2]; [M-H]-): 266.5 Å²

CC/C=C\C/C=C\C/C=C\C/C=C\C/C=C\CCCC(=O)O[C@H](CO/C=C\CCCCCCCCCCCCCC)COP(=O)(O)OCCN [PE(p36:5)]
collision cross section (N2) ([2]; [M+H]+): 274.2 Å²

CCCCC/C=C\C/C=C\C/C=C\CCCCCCC(=O)O[C@H](CO/C=C\CCCCCCCCCCCCCCCC)COP(=O)(O)OCCN [PE(p38:3)]
collision cross section (N2) ([2]; [M+H]+): 281.4 Å² | collision cross section (N2) ([2]; [M-H]-): 270.9 Å²

CCCCC/C=C\C/C=C\C/C=C\C/C=C\CCCCCC(=O)O[C@H](CO/C=C\CCCCCCCCCCCCCC)COP(=O)(O)OCCN [PE(p38:4)]
collision cross section (N2) ([3]; [M+H]+): 281.5 Å² | collision cross section (N2) ([2]; [M+H]+): 280.6 Å² | collision cross section (N2) ([2]; [M-H]-): 270.3 Å²

CCCCCCCCCCCCCCCC(=O)OCC(COP(=O)(O)OCC(O)CO)OC(=O)CCCCCCCC1CC1CCCCCC (configuration not stated) [PG(33:1)]
collision cross section (N2) ([6]; [M+Na]+): 280.56 Å² | collision cross section (N2) ([6]; [M-H]-): 266.36 Å²

CCCCCCCC/C=C\CCCCCCCC(=O)OC(COC(=O)CCCCCCCCCCCCCCC)COP(=O)(O)OCC(O)CO (configuration not stated) [PG(34:1)]
collision cross section (N2) ([6]; [M+Na]+): 281.03 Å² | collision cross section (N2) ([6]; [M-H]-): 270.03 Å²

CCCCCCCC/C=C\CCCCCCCC(=O)OC(COC(=O)CCCCCCCCCCCCCCCCC)COP(=O)(O)OCC(O)CO (configuration not stated) [PG(36:1)]
collision cross section (N2) ([6]; [M-H]-): 276.25 Å²

CC/C=C\C/C=C\C/C=C\C/C=C\CCCCC(=O)O[C@H](COC(=O)CCCCCCCCCCC/C=C\C/C=C\CCCCC)COP(=O)(O)OC[C@@H](O)CO [PG(40:6)]
collision cross section (N2) ([3]; [M+NH4]+): 296.6 Å² | collision cross section (N2) ([3]; [M+Na]+): 292.4 Å² | collision cross section (N2) ([2]; [M+Na]+): 290 Å² | collision cross section (N2) ([2]; [M-H]-): 281.9 Å²

CCCCCCCCCC/C=C\CCCCCCCCCC(=O)O[C@H](COC(=O)CCCCCCCCCCCCC)COP(=O)(O)O[C@H]1C(O)C(O)C(O)[C@@H](O)C1O (some centres not stated) [PI(36:1)]
collision cross section (N2) ([3]; [M+H]+): 301.6 Å² | collision cross section (N2) ([3]; [M+NH4]+): 302.2 Å² | collision cross section (N2) ([3]; [M+Na]+): 299 Å² | collision cross section (N2) ([3]; [M-H]-): 290.5 Å² | collision cross section (N2) ([2]; [M+Na]+): 297.2 Å² | collision cross section (N2) ([2]; [M-H]-): 289.6 Å²

CCCCC/C=C\C/C=C\C/C=C\C/C=C\CCCC(=O)O[C@H](COC(=O)CCCCCCC/C=C\CCCCCCCC)COP(=O)(O)O[C@H]1C(O)C(O)C(O)[C@@H](OP(=O)(O)O)C1O (some centres not stated) [PIP(38:5)]
collision cross section (N2) ([2]; [M+H-H2O]+): 299.7 Å²

CCCCCCCCCCCCC=CC[C@@H](O)[C@H](COP(=O)([O-])OCC[N+](C)(C)C)NC(=O)CCCCCCCCCCCCCCC [SM(d18:1/16:0)]
collision cross section (N2) ([2]; [M+H]+): 281.1 Å²

CCCCCCCCCCCCC=CC[C@@H](O)[C@H](COP(=O)([O-])OCC[N+](C)(C)C)NC(=O)CCCCCCCCCCCCCCCCC [SM(d18:1/18:0)]
collision cross section (N2) [7]: 290.2 Å² | collision cross section (N2) ([2]; [M+H]+): 286.6 Å²

CCCCCCCCCCCCC=CC[C@@H](O)[C@H](COP(=O)([O-])OCC[N+](C)(C)C)NC(=O)CC=CCCCCCCCCCCCCCCCCCC [SM(d18:1/22:1)]
collision cross section (N2) ([2]; [M+H]+): 295 Å²

Source: the C3SDB collision cross section collection
